Earlier results in patent US20040204467A1, “Use of 5HT3-receptor-antagonists” (priority 1998, published 2004).

Key:
patients with CFS = settings: after an acute application on patients with CFS
CFS patients = settings: daily dose of 20 mg; also in patients with accompanying symptoms of depression

CCN[C@@H](C)Cc1cccc(C(F)(F)F)c1 [D-Feufluoroamin]
rise of prolactin in the serum (patients with CFS): significantly increased rise of prolactin

CNCCC(Oc1ccc(C(F)(F)F)cc1)c1ccccc1 (centres unmarked) [fluoxetin]
result of treatment of CFS (CFS patients): negative in result
